We go through four compounds from patent US20220267258A1, “ROBENIDINE ANALOGS AS POTENT ANTIMALARIALS AGAINST DRUG-RESISTANT PLASMODIUM FALCIPARUM” (OREGON HEALTH & SCIENCE UNIVERSITY, priority 2021, published 2022).

Read-outs that look alike come from different tables or passages of the source.

The test system of one data set is P. falciparum Tm90-C2B. Kind of data set: SYBR Green growth inhibition assay, P. falciparum Tm90-C2B. To be noted: read-out: IC50 Tm90-C2B. It counts as cell-based, Plasmodium falciparum. How it is done:
(§1) In addition to the drug-sensitive P. falciparum D6 strain, the aminoguanidines were assessed against three drug-resistant strains (Tables 1-3).
(§2) The following parasite strains were used in this study and obtained through BEI Resources, NIAID, NIH. […] The culture medium used was RPMI-1640, supplemented with 25 mM HEPES buffer, 25 mg/L gentamicin sulfate, 45 mg/L hypoxanthine, 10 mM glucose, 2 mM glutamine, and 0.5% Albumax II (complete medium).^43 Cultures were maintained in a standard low oxygen atmosphere (5% O2, 5% CO2, 90% N2) in an environmental chamber and incubated at 37° C. Cultures were sub-passaged every 3-4 days into a fresh culture flask containing complete media and erythrocytes.
(§3) The aminoguanidine series was assessed for in vitro antiplasmodial activity using the fluorescence-based SYBR Green assay described previously by Smilkstein and co-workers.^38 Compounds were evaluated in quadruplicate in flat-bottomed Costar clear 96-well plates (Model #3585). A two-fold serial dilution of each compound was performed across the columns of the test plates starting with 20 μM and ending with a final untreated column to serve as control wells. Asynchronous parasite infected erythrocytes in growth media were added to each well for a total volume of 100 μL, final hematocrit of 2%, and initial parasitemia of 0.2%. The commercial malaria drugs atovaquone and chloroquine were used as control drugs. Test plates were incubated for 72 hr at 37° C. in an environmental chamber with a controlled low oxygen atmosphere (5% O2, 5% CO2, 90% N2). After the incubation period, 100 μL SYBR Green I dye-detergent solution was added to each well, and the plates were incubated at ambient temperature and atmosphere in the dark for at least one hour. Fluorescence was read at 497 nm excitation and 520 nm emission bands using a Spectramax iD3 plate reader. Fluorescence readings were normalized with respect to the untreated control wells representing normal parasite growth and plotted against the logarithm of drug concentration.

Data set [1] relates to human hepatoma derived HepG2 cells. The data set can be described thus: HepG2 cytotoxicity assay (resazurin). It counts as cell-based. The conditions noted are these: HepG2, 24 hr drug, 24 hr recovery. As to the method:
(§4) In this assay, HepG2 cells were incubated with test compounds for 24 hours, followed by a 24-hour recovery period and subsequent staining to evaluate for cytotoxic effects with resazurin. The ratio of the resulting HepG2 IC50 value to the P. falciparum D6 IC50 value can be considered an ‘in vitro therapeutic index,’ or IVTI.
(§5) Compounds were prepared as 10 mM stock solutions in DMSO. […] HepG2 cells were added to each well of flat bottom 96-well tissue culture plates at an initial density of 2×10^4 cells per well, and an initial volume of 160 μL complete medium per well. After an overnight incubation at 37° C. to adhere the cells to the culture plates, 40 μL drug solutions in complete medium were applied to each well at a final concentration range of 0 to 200 μM across each plate. Drugs were tested in triplicate or quadruplicate. The cells were incubated for 24 hours at 37° C. and 5% CO2 with the drug solutions, which were then aspirated and replaced with 200 μL per well of complete medium for an additional 24 hour incubation under the same conditions. To each well was added 20 μL of resazurin (Alamar Blue) in PBS buffer to a final concentration of 10 μM, and the plates were incubated for 3 hours. Fluorescence was measured at 560 nm excitation and 590 nm emission bands using a Spectramax iD3 plate reader. Fluorescence readings were normalized with respect to the untreated control wells and plotted against the logarithm of drug concentration.

The next data set deals with P. falciparum A6. The data set can be described thus: SYBR Green growth inhibition assay, P. falciparum A6. It counts as cell-based, Plasmodium falciparum. To be noted: read-out: IC50 A6. As to the method: as §1, §2, §3
The next data set relates to P. falciparum Dd2. The data set can be described thus: SYBR Green growth inhibition assay, P. falciparum Dd2. It counts as cell-based, Plasmodium falciparum. To be noted: read-out: IC50 Dd2. How it is done:
as §1, §2, §3

The next data set has as its system P. falciparum strain D6. The data set can be described thus: SYBR Green growth inhibition assay, P. falciparum D6. It counts as cell-based, Plasmodium falciparum. The conditions noted are these: read-out: IC50 D6. How it is done: (§6) The in vitro activity of each compound in the aminoguanidine library was assessed against asynchronous cultures of Plasmodium falciparum parasites replicating within human erythrocytes (Tables 1-3). As the chemical development of robenidine was not discussed in its original publication in 1970^4 and limited structural information is available regarding its mechanism of action,^10 profiling was guided primarily by in vitro potency against the P. falciparum D6 strain cultured in human erythrocytes as described above.
as §2
as §3, with “The commercial malaria drugs atovaquone and chloroquine were used as control drugs.” left out

Another data set deals with P. falciparum strains. It counts as cell-based, Plasmodium falciparum. How it is done:
as §6
All aminoguanidines synthesized were also evaluated against three multi-drug resistant P. falciparum strains (Dd2, Tm90-C2B, and A6) and for mammalian cell cytotoxicity.
as §1
as §3, with “The commercial malaria drugs atovaquone and chloroquine were used as control drugs.” left out

For the next data set, the system named is Leishmania donovani. The conditions noted are these: read-out: in vitro IC50; cited from earlier work.
Another data set relates to P. falciparum. To be noted: P. falciparum in vitro, in words; cited from earlier work.
For a further data set, the system named is T. cuzi. To be noted: read-out: in vitro IC50; cited from earlier work.
The next data set concerns T. brucei. To be noted: read-out: in vitro IC50; cited from earlier work.
In a further data set the test system is Plasmodium yoelii. Kind of data set: modified 4-day Peters test, murine malaria. It counts as in vivo, mice. To be noted: for P. yoelii NRD (non-recrudescence dose, cure dose): oral, doses up to 25 mg/kg/day, no parasites at day 30. As to the method:
In this modified 4-day Peters test,^41 mice were inoculated with parasites from a donor mouse (day 0), and then dosed orally with drugs on each of the subsequent four days (days 1-4). On day 5 of the experiment, the parasitemia for each mouse was determined microscopically by examining methanol-fixed and Giemsa-stained blood smears. The ED50 represents the interpolated dose of a compound at which parasitemia was suppressed to one half that of untreated controls. Similarly, the ED90 represents the dose at which parasitemia is suppressed ten-fold. Mice were considered cured of their infection if no parasites were detected in the blood 30 days from the first drug administration, and the non-recrudescence dose (NRD) represents the lowest dose to achieve a cure.
The in vivo ED50 and ED90 of selected aminoguanidines was measured using a modified 4-day Peters test. Female CF1 mice from Charles River Laboratories were inoculated intravenously with approximately 2.5-5.0×10^4 parasitized erythrocytes (murine malaria P. yoelii, Kenya strain MR4 MRA-428) from a donor mouse (experiment day zero). On the following four days (experiment days 1-4), solutions of the test compounds in PEG-300 (or PEG-300 only for control mice) were administered by oral gavage once daily. […] Parasitemia of each mouse was determined by microscopic examination of Giemsa stained blood smears on day 5. ED50 and ED90 values were assessed by generating dose-response curves relative to untreated controls using Graphpad Prism (v. 8). Mice were considered cured of malarial infection if they maintained 0% parasitemia at experiment day 30. The procedures involved, together with all matters relating to the care, handling, and housing of the animals used in this study, were approved by the Portland VA Medical Center Institutional Animal Care and Use Committee.

The subject of a further data set is P. berghei. To be noted: murine species P. berghei, 1970; cited from earlier work.
The test system of a further data set is Toxoplasma gondii. To be noted: cited from earlier work.
Data set [2] can be described thus: murine microsomal stability. To be noted: from t1/2, assumed murine hepatic blood flow 90 mL/min/kg. As to the method: To investigate the relationship between the aminoguanidines' in vivo efficacy and their metabolic properties, the murine microsomal stability of a selection of aminoguanidines was evaluated (Table 6). Robenidine, 16, 21, 1, and the control compound ketanserin were incubated with pooled murine liver microsomes and monitored for degradation by LC/MS/MS for one hour. The concentration vs. time plot for each compound was used to determine its biological half-life (t1/2) and predicted intrinsic clearance (Clint).
Metabolic stability studies of selected aminoguanidines were performed at ChemPartner, Shanghai, China. Compounds were incubated at 37° C. and 1 μM concentration in murine liver microsomes (Corning) for one hour at a protein concentration of 0.5 mg/mL in potassium phosphate buffer at pH 7.4 containing 1.0 mM EDTA. The metabolic reaction was initiated by NADPH and quenched with ice-cold acetonitrile at 15 minute increments up to one hour.

The next data set has as its system Babesia microti. To be noted: oral; cited from earlier work.
Data set [3] in a line: HepG2 cytotoxicity assay (resazurin). It counts as cell-based, human. The conditions noted are these: human, HepG2 cells; HepG2, 24 hr drug, 24 hr recovery. As to the method: as §4, §5
Setting [4] is: multi-drug resistant clinical isolate, also atovaquone resistant, 72 hr.
Setting [5] is: mutant line resistant to respiratory antagonists, 72 hr.
Setting [6] is: multi-drug resistant strain, 72 hr.
The mark [7] stands for this setting: pan-sensitive strain, 72 hr, asynchronous cultures in human erythrocytes.
Setting [8] is: oral gavage days 1-4, parasitemia day 5.

For `N=C(NN=Cc1ccc(C(=O)O)cc1)NN=Cc1ccc(C(=O)O)cc1` [Compound 29], the IC50 is above 5 µM with P. falciparum Tm90-C2B (setting [4]); above 200 µM in data set [1]; above 5 µM in the data set on P. falciparum A6 (setting [5]); above 5 µM in the data set with P. falciparum Dd2 (setting [6]); above 5 µM with P. falciparum strain D6 (setting [7]). Besides, the “activity against all tested P. falciparum strains” value in the data set on P. falciparum strains is “inactive”.

On to `Cl.Cl.Cl.N=C(N)c1cccc(/C=N/N=C(\N)N/N=C/c2cccc(C(=N)N)c2)c1` [CGP 40215A], for which the IC50 in the data set on Leishmania donovani is 18 µM; in the data set with T. cuzi, 20 µM; in the data set with T. brucei, 20 µM. In the data set with P. falciparum, the IC50 value entry was “low micromolar”.

Turning to `N=C(N/N=C/c1ccc(Cl)cc1)N/N=C/c1ccc(Cl)cc1` [Robenidine], the IC50 with P. falciparum Tm90-C2B (setting [4]) amounted to 1.32 µM; in data set [1], 30 µM; in the data set on P. falciparum A6 (setting [5]), 0.41 µM; in the data set on P. falciparum Dd2 (setting [6]) it was 0.814 µM; in the data set with P. falciparum strain D6 (setting [7]), 0.324 µM. Further, the “P. yoelii ED50” value in the data set on Plasmodium yoelii (setting [8]) turned out to be 1.6 mg/kg/day. Moreover, in the data set on Plasmodium yoelii (setting [8]), the “P. yoelii ED90” value was found to be 4.9 mg/kg/day. In addition, in the data set with Plasmodium yoelii, the “P. yoelii NRD (non-recrudescence dose, cure dose)” value is recorded as above 25 mg/kg/day. Moreover, the activity in vivo entry in the data set on P. berghei is reported as “moderate activity”. The “in vitro IC50” value in the data set with Toxoplasma gondii is 0.03 µg/mL. In [2], the “Predicted Clint” value is on record as 34.40 mL/min/kg. Also, the “murine in vivo non-recrudescence dose” value in the data set on Babesia microti is 100 mg/kg/day.

Take `N#Cc1cc(/C=N/NC(=N)N/N=C/c2ccc(F)c(C#N)c2)ccc1F` [Compound 1]: the IC50 came to 0.016 µM in the data set on P. falciparum Tm90-C2B (Plasmodium falciparum, TM90, 72 h); 0.014 µM in the data set with P. falciparum A6 (Plasmodium falciparum, 72 h); 0.012 µM in the data set on P. falciparum Dd2 (Plasmodium falciparum, DD2, 72 h); 0.004 µM with P. falciparum strain D6 (Plasmodium falciparum, D6, Erythrocyte, 72 h). Further, the “cure in this model” value in the data set on Plasmodium yoelii (4-day oral dosing, 0% parasitemia at day 30) is “not curative”. Further, the “P. yoelii ED90” value in the data set on Plasmodium yoelii (setting [8]) was determined as 0.28 mg/kg/day. In addition, the “P. yoelii NRD (non-recrudescence dose, cure dose)” value with Plasmodium yoelii is on record as above 25 mg/kg/day. The compound also returned an IC50 at 24 h in data set [3] of 8 µM. Besides, the “IC50 values against P. falciparum strains” value with P. falciparum strains (in words) is “single-digit nanomolar”.
